Laboratory results taken from patent US20240336608A1, “IL4I1 INHIBITORS AND METHODS OF USE” (Merck Sharp & Dohme LLC, priority 2023, published 2024).

Biological target: T1, recombinant IL4I1 (Homo sapiens, UniProt Q96RQ9)
T1 construct: purchased R&D Systems 5684-AO-020
T1 sequence (Q96RQ9 22-567): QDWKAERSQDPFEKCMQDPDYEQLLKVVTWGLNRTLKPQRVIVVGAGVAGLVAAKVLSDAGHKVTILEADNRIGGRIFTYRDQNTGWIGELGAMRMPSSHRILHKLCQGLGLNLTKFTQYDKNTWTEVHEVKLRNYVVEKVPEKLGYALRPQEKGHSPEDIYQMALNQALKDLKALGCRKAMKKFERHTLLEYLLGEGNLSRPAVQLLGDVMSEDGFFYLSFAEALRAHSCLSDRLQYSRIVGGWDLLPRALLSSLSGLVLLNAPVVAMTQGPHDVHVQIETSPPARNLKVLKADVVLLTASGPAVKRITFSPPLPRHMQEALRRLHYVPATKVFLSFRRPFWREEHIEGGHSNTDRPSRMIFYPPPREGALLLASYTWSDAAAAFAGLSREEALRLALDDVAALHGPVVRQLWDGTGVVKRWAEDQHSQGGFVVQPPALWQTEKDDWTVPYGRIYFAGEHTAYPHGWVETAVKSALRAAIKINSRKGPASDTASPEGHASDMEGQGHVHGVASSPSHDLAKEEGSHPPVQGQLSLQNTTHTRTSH
Assay: IL4I1 Enzymatic Assay (Amplex Red/HRP coupled detection of H2O2, fluorescence)
Assay type: biochemical
Details: 1 nM recombinant IL4I1; four-hour pre-incubation with compound; 1 mM each Phe, Tyr, Trp; ten-point titration
Procedure, shortened: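 H2O2 output was coupled to resorufin fluorescence (ex 544/em 590) via 0.05 mM Amplex Red and 1 U/mL HRP. Substrate: Phe, Tyr, Trp at 1 mM each; enzyme 1 nM, 4 h compound pre-incubation, 120 min reaction, pH 7.0 Hepes. EC50 by nonlinear four-parameter regression, 1:3 ten-point titration.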

Structure (SMILES)	EC50 [nM]
O=C(NCc1nnc(-c2ccccc2)s1)c1cn(-c2ccncc2)nn1 [Example 240, N-((5-phenyl-1,3,4-thiadiazol-2-yl)methyl)-1-(pyridin-4-yl)-1H-1,2,3-triazole-4-carboxamide]	163
CN1CC(n2cc(C(=O)NCc3nnc(-c4ccccc4)s3)nn2)CC1=O (stereo not shown) [Example 183, 1-(1-methyl-5-oxopyrrolidin-3-yl)-N-((5-phenyl-1,3,4-thiadiazol-2-yl)methyl)-1H-1,2,3-triazole-4-carboxamide]	139
O=C(NCc1nnc(-c2ccccc2)s1)c1cn(C2(CO)COC2)nn1 [Example 158, 1-(3-(hydroxymethyl)oxetan-3-yl)-N-((5-phenyl-1,3,4-thiadiazol-2-yl)methyl)-1H-1,2,3-triazole-4-carboxamide]	335
CCc1[nH]nc(C(=O)NCc2nnc(-c3ccccc3)s2)c1C [Example 47, 5-ethyl-4-methyl-N-((5-phenyl-1,3,4-thiadiazol-2-yl)methyl)-1H-pyrazole-3-carboxamide]	155
Cc1n[nH]c(C(=O)NCc2nnc(-c3ccccc3)s2)c1C [Example 42, 3,4-dimethyl-N-((5-phenyl-1,3,4-thiadiazol-2-yl)methyl)-1H-pyrazole-5-carboxamide]	458
C[C@@H](C1COC1)n1cc(C(=O)NCc2nnc(-c3ccccc3)s2)nn1 [Example 148, (S)-1-(1-(oxetan-3-yl)ethyl)-N-((5-phenyl-1,3,4-thiadiazol-2-yl)methyl)-1H-1,2,3-triazole-4-carboxamide]	164
Cc1ccc(-n2cc(C(=O)NCc3nnc(-c4ccc(Cl)cc4)s3)nn2)c(C)n1 [Example 113, N-((5-(4-chlorophenyl)-1,3,4-thiadiazol-2-yl)methyl)-1-(2,6-dimethylpyridin-3-yl)-1H-1,2,3-triazole-4-carboxamide]	838
O=C(NCc1cc(-c2ccccc2)no1)c1cn(C2COC2)nn1 [Example 253, 1-(oxetan-3-yl)-N-((3-phenylisoxazol-5-yl)methyl)-1H-1,2,3-triazole-4-carboxamide]	209
O=C(NCc1nnc(-c2ccccc2)s1)c1cn(C2C3COCC32)nn1 (stereo not shown) [Example 200, 1-(3-oxabicyclo[3.1.0]hexan-6-yl)-N-((5-phenyl-1,3,4-thiadiazol-2-yl)methyl)-1H-1,2,3-triazole-4-carboxamide]	537
Cn1cc(C(=O)NCc2nnc(-c3ccc(Cl)cc3)s2)nn1 [Example 296, N-((5-(4-chlorophenyl)-1,3,4-thiadiazol-2-yl)methyl)-1-methyl-1H-1,2,3-triazole-4-carboxamide]	418
Cc1ccc(-n2cc(C(=O)NCc3cc(-c4ccccc4Cl)on3)nn2)c(C)n1 [Example 222, N-{[5-(2-chlorophenyl)-1,2-oxazol-3-yl]methyl}-1-(2,6-dimethylpyridin-3-yl)-1H-1,2,3-triazole-4-carboxamide]	172

Stronger by EC50, values ahead:

EC50 [nM]	Structure (SMILES)
113	CC(C#N)n1cc(C(=O)NCc2cc(-c3ccncc3)on2)nn1 (single isomer, unassigned) [Example 276, 1-(1-cyanoethyl)-N-((5-(pyridin-4-yl)isoxazol-3-yl)methyl)-1H-1,2,3-triazole-4-carboxamide]
108	Cc1n[nH]c(C)c1-n1cc(C(=O)NCc2nnc(-c3ccccc3)s2)nn1 [Example 346, 1-(3,5-dimethyl-1H-pyrazol-4-yl)-N-((5-phenyl-1,3,4-thiadiazol-2-yl)methyl)-1H-1,2,3-triazole-4-carboxamide]
104	O=C(NCc1nnc(-c2ccccc2)s1)c1cn(C2(CO)CCC2)nn1 [Example 163, 1-(1-(hydroxymethyl)cyclobutyl)-N-((5-phenyl-1,3,4-thiadiazol-2-yl)methyl)-1H-1,2,3-triazole-4-carboxamide]
93	Cc1onc(C(=O)NCc2nnc(-c3ccccc3)s2)c1C [Example 24, 4,5-dimethyl-N-[(5-phenyl-1,3,4-thiadiazol-2-yl)methyl]isoxazole-3-carboxamide]
84	CC(NC(=O)c1cn(CC(F)F)nn1)c1nnc(-c2ccccc2)s1 (single isomer, unassigned) [Example 251, 1-(2,2-difluoroethyl)-N-(1-(5-phenyl-1,3,4-thiadiazol-2-yl)ethyl)-1H-1,2,3-triazole-4-carboxamide]
74	O=C(NCc1cc(-c2ccncc2)no1)c1cn(C2CC2)nn1 [Example 284, 1-cyclopropyl-N-((3-(pyridin-4-yl)isoxazol-5-yl)methyl)-1H-1,2,3-triazole-4-carboxamide]
72	CC(C#N)n1cc(C(=O)NCc2cc(-c3ccncc3)no2)nn1 (single isomer, unassigned) [Example 286, 1-(1-cyanoethyl)-N-((3-(pyridin-4-yl)isoxazol-5-yl)methyl)-1H-1,2,3-triazole-4-carboxamide]
69	CC(O)c1cc(C(=O)NCc2nnc(-c3ccccc3)s2)on1 (single isomer, unassigned) [Example 330, 3-(1-hydroxyethyl)-N-((5-phenyl-1,3,4-thiadiazol-2-yl)methyl)isoxazole-5-carboxamide]
34	O=C(NCc1nnc(-c2ccccc2)s1)c1cn(CC2CCCC2)nn1 [Example 78, 1-(cyclopentylmethyl)-N-((5-phenyl-1,3,4-thiadiazol-2-yl)methyl)-1H-1,2,3-triazole-4-carboxamide]
31	Cc1ccc(-n2cc(C(=O)NCc3ccc(-c4ccsc4)nn3)nn2)c(C)n1 [Example 118, 1-(2,6-dimethylpyridin-3-yl)-N-((6-(thiophen-3-yl)pyridazin-3-yl)methyl)-1H-1,2,3-triazole-4-carboxamide]
29	Cc1ccc(-n2cc(C(=O)NCc3nnc(-c4ccsc4C)s3)nn2)c(C)n1 [Example 109, 1-(2,6-dimethylpyridin-3-yl)-N-((5-(2-methylthiophen-3-yl)-1,3,4-thiadiazol-2-yl)methyl)-1H-1,2,3-triazole-4-carboxamide]
18	N#CC1(Cn2cc(C(=O)NCc3nnc(-c4ccccc4)s3)nn2)CC1 [Example 87, 1-((1-cyanocyclopropyl)methyl)-N-((5-phenyl-1,3,4-thiadiazol-2-yl)methyl)-1H-1,2,3-triazole-4-carboxamide]
14	Cc1ccc(-n2cc(C(=O)NCc3nnc(-c4cncs4)s3)nn2)c(C)n1 [Example 298, 1-(2,6-dimethylpyridin-3-yl)-N-((5-(thiazol-5-yl)-1,3,4-thiadiazol-2-yl)methyl)-1H-1,2,3-triazole-4-carboxamide]
11	O=C(NCc1nnc(-c2ccccc2)s1)c1cn([C@H]2C[C@H](O)C2)nn1 [Example 281]
8	O=C(NCc1nnc(-c2ccccc2)s1)c1cn(C2CC2)nn1 [Example 268, 1-cyclopropyl-N-((5-phenyl-1,3,4-thiadiazol-2-yl)methyl)-1H-1,2,3-triazole-4-carboxamide]
6	Cc1nc(C(N)=O)ccc1-n1cc(C(=O)NCc2nnc(-c3ccccc3)s2)nn1 [Example 333, 6-methyl-5-(4-(((5-phenyl-1,3,4-thiadiazol-2-yl)methyl)carbamoyl)-1H-1,2,3-triazol-1-yl)picolinamide]
5	O=C(NCc1nnc(-c2ccccc2)s1)c1cn([C@@H]2C[C@@H]2C(F)F)nn1 (single isomer, unassigned) [Example 145, cis-1-(-2-(difluoromethyl)cyclopropyl]-N-[(5-phenyl-1,3,4-thiadiazol-2-yl)methyl]-1H-1,2,3-triazole-4-carboxamide]
